Data as given in patent US5607967A, “Treatment of alzheimer's disease with 5-(tetradecyloxy)-2-furan carboxylic acid” (Merck & Co., Inc., priority 1994, dated 1997).
Values joined by “and” are separate entries in the source; they are usually repeats but may differ in a detail not shown here. Equal values may be shown once.

Assays:
[1] = tested on: Dopamine D1 receptor antagonist (SCH 23390) induced catalepsy; assay: SCH 23390 induced catalepsy (Bar method); type: in vivo, rat; details: for Catalepsy Duration: TOFA 0.4 mg/kg S.C. pretreatment
Experimental: Rats were pretreated with 0.4 mg/kg TOFA or with carrier (S.C.). Twenty-four hours later, the rats were challenged with 0.5 mg/kg SCH23390, a Dopamine D1 antagonist, and the duration of catalepsy was monitored.
Catalepsy was determined by a modification of the Bar method (Undie and Friedman, 1988). A steel bar, 1.1 cm in diameter and 50 cm long, was suspended at a height of 10 cm above the working surface. Three sides of the bench around the bar were walled off with brown cardboard, and the linings on the bench surface were selected to be of the same color with the cardboard walls. The animal's hind limbs were freely placed on the bench, the fail laid out to the back, and the forelimbs placed over the bar. The length of time a rat stayed up on the bar was noted up to a preset cut-off point of 120 s. The time was counted off upon observing any of the following actions: (1) the animal came off, placing its two forepaws on the bench, (2) the animal climbed onto or over the bar with both hind limbs, (3) the animal initiated locomotion along or around the bar. Subsequently, time readings were translated into scores by awarding a score of 1 for each successfully completed 5 s on the bar. For each observation time, catalepsy scores were averaged for all the animals in a group to give the Mean Score of the group at that observation time. Further, the scores for each animal at all the observation times were added to give the total score for that animal. The mean of this last group of numbers was called the Mean Total Score of the group.
Catalepsy scores were analyzed by computer in accordance with the statistical procedures outlined by Winer, B. J.: Statistical principles in experimental design. McGraw-Hill, New York, pp. 10-428, 1971. Generally, for a given set of comparisons, observations were subjected to an appropriate analysis of variance followed by two-tailed Dunnett or Student's t-tests to detect differences between treatment groups.

PC12 cells [2] = assay: Neurite differentiation of PC12 cells; type: cell-based; details: TOFA alone, without NGF
PC12 cells [3] = assay: Neurite differentiation of PC12 cells; type: cell-based; details: for % Cells Bearing Neurites / Average length of neurites: 4 days, mean ±SEM
Experimental: To further study the influence of TOFA on the nervous system, we tested the effect of TOFA on the differentiation of PC12 cells. PC12 cells were plated at a density of approximately 100-200/mm^2 on collagen coated plates or dishes in RPMI medium supplemented with 10% horse serum, 5% fetal calf serum, […] streptomycin, 50 U/mL penicillin in a water saturated atmosphere of 95% air and 5% CO2, at 37° C. overnight. Medium was replaced with fresh RPMI containing 1.5% serum, 100 ng/mL NGF and the indicated concentration of TOFA or an equivalent volume of vehicle (DMSO) giving a final concentration of 0.1% DMSO.
At different time points during the treatment, cells were photographed or fixed with 10% formalin. Morphology was examined after four days of treatment with TOFA or vehicle (DMSO). The number of cells beating neurites and average length of neurites were determined with the aid of the Bioquant imaging system. […] However, as depicted in Table 6 below, NGF alone induced a 15% increase in the number of cells bearing neurites and these outgrowths reached a mean length of 20 μm. Treatment with NGF and TOFA increased the percentage of cells beating neurites to 78%. Maximal neurite generation is observed at a concentration of 10 μM TOFA.
Cells were treated with vehicle (0.1% DMSO) or various concentrations of TOFA in the presence of 100 ng/mL NGF for 4 days, and then fixed with 10% formalin. At least eighty cells from eight wells were analyzed in each group. The results are shown as the mean ±SEM. ^a p<0.01, versus vehicle by Dunnetts test.

GR/NER chimeric receptor = assay: Activation of GR/NER in CV1 cells (luciferase)
Experimental: The ligand dependent transcription assays were performed as described in Example 4, using CV1 cells in place of COS cells. The transfected CV1 cells were treated with dopamine, TOFA, or with a combination of TOFA and dopamine at the indicated concentrations and tested for luciferase activity.
CV1 cells were co-transfected with the MMTV-Luciferase reporter gene (pJA358) and the GR/NER chimeric receptor as described in Example 4. The cells were treated with increasing amount of the dopamine D1 receptor antagonist SCH 23390 with or without 50 μM […] dopamine.

human NUCI receptor = target: T1, human NUCI receptor (Homo sapiens, UniProt Q03181); assay: Transcription assay, native NUC-I receptor co-transfected with MMTV-luciferase reporter
T1 sequence (Q03181 1-441): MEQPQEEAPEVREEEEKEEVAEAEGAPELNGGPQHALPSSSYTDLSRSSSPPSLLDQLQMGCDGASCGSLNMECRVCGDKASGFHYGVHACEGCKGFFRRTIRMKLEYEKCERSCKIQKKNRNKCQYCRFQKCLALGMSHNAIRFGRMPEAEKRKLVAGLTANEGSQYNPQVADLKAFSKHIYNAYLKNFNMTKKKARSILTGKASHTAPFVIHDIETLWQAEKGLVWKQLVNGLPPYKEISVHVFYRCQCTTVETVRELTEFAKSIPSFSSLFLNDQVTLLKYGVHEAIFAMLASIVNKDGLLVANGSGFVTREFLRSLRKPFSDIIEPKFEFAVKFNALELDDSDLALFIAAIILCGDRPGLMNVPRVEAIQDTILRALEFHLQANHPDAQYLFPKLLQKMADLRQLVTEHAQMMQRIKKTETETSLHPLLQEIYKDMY
Experimental: The reporter gene was the plasmid pJA358 in which the expression of firefly luciferase is regulated by two tandem repeats of the glucocorticoid hormone response element (GRE) linked to the MMTV promoter (Boie et al., 1993).
Transient transfection of COS and CV1 cells was performed as described (Schmidt 1992). Cells were plated (1.5×10^5 in 1 mL) into 12 well dishes in phenol red-free medium supplemented with activated charcoal treated fetal calf serum. The next day 0.12 mL of DNA 10 μg/ml (5 μg receptor DNA and 5 μg reporter plasmid), as a calcium phosphate precipitate, was added to the cells. Ligands were added to the cells 30 minutes after transfection. The next day (18 hours), the cells were washed and fresh ligands added. Twenty-four hours later, cell extracts were prepared and assayed for luciferase enzyme activity using the luciferase assay system (Promega Madison, Wis.). Each transfection was performed in triplicate and the luciferase activity of each sample measured in duplicate using the AutoClinilumat (Berthold Nashua, N.H.).
The transfected cells were treated with TOFA at 2 μM, 10 μM, 20 μM, and 50 μM and oleic acid at 50 μM, and 300 μM.

[4] = read-out: Fold of stimulation NUC-I

Structure (SMILES): CCCCCCCCCCCCCCOc1ccc(C(=O)O)o1 [TOFA, 5-(tetradecyloxy)-2-furan carboxylic acid]
- Catalepsy Duration ([1]; 24 h later 0.5 mg/kg SCH23390): 75 ± 17.8 s
- Catalepsy Duration ([1]; no challenge): 0 s
- Increase of duration of SCH 23390-induced catalepsy by TOFA pretreatment ([1]; TOFA 0.4 mg/kg S.C., 24 h before 0.5 mg/kg SCH23390): at least 25 fold
- Neurite outgrowth (PC12 cells [2]): did not induce neurite outgrowth
- % Cells Bearing Neurites (PC12 cells [3]; 0.1 μM TOFA with 100 ng/mL NGF): 14.27 ± 3.51%
- Average length of neurites (PC12 cells [3]; 0.1 μM TOFA with 100 ng/mL NGF): 23.67 ± 2.86 μm
- % Cells Bearing Neurites (PC12 cells [3]; 1.0 μM TOFA with 100 ng/mL NGF): 24.07 ± 3.06%
- Average length of neurites (PC12 cells [3]; 1.0 μM TOFA with 100 ng/mL NGF): 28.63 ± 3.92 μm
- % Cells Bearing Neurites (PC12 cells [3]; 10 μM TOFA with 100 ng/mL NGF): 78% and 78.39 ± 4.89%
- Average length of neurites (PC12 cells [3]; 10 μM TOFA with 100 ng/mL NGF): 32.43 ± 2.38 μm
- Concentration of maximal neurite generation (PC12 cells [3]; with 100 ng/mL NGF): 10 µM
- Fold of stimulation GR/NER (GR/NER chimeric receptor; TOFA 10 μM with dopamine 100 μM): 1.40 ± 0.05 fold
- Fold of stimulation GR/NER (GR/NER chimeric receptor; TOFA 100 μM with dopamine 100 μM): 1.60 ± 0.07 fold
- Fold of stimulation GR/NER (GR/NER chimeric receptor; TOFA 100 μM, no dopamine): 3.70 ± 0.06 fold
- Expression of MMTV-luciferase reporter after co-transfection of native NUCI (human NUCI receptor): did not stimulate expression
- fold induction at 2 µM (human NUCI receptor; [4]): 0.83 ± 0.12
- fold induction at 10 µM (human NUCI receptor; [4]): 0.94 ± 0.08
- fold induction at 50 µM (human NUCI receptor; [4]): 1.27 ± 0.06
